Test results reported in patent US12552770B2, “Compounds for treating respiratory disease” (TMEM16A Limited, priority 2020, dated 2026).
pEC50: −log10 of the molar value.

Target: T1, human TMEM16A (TMEM16Aabc variant) (Homo sapiens, UniProt Q5XXA6, DEL476-501)
T1 sequence (Q5XXA6 with tags, fused parts or gaps isoform Q5XXA6-5 DEL539-564): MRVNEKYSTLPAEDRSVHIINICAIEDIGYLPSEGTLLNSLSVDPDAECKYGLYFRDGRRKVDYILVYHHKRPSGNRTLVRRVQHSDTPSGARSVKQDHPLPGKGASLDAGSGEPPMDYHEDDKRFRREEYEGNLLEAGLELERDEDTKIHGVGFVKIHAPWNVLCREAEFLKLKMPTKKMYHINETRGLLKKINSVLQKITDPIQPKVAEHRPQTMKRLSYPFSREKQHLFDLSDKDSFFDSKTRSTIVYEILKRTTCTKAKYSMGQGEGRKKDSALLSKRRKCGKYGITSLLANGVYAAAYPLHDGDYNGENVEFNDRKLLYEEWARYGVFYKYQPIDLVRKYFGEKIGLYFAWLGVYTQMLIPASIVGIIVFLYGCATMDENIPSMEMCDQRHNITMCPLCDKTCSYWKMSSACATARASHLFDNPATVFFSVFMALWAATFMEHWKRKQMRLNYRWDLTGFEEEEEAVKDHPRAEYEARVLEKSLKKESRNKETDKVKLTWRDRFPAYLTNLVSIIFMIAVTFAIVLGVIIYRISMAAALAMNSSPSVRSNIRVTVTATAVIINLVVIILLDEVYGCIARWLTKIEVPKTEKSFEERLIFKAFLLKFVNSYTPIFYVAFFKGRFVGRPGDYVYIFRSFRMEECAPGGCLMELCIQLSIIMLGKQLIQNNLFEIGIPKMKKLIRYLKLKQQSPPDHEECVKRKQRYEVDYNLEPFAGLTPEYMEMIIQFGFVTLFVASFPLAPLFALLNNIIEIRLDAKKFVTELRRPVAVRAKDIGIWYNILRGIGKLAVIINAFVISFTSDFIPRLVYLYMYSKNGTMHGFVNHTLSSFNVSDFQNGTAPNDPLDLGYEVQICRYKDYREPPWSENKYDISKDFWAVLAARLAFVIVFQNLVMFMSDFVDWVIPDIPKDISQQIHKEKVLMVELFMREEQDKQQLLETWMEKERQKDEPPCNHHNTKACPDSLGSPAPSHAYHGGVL
Experiment: Automated whole-cell patch clamp (Qpatch) TMEM16A potentiator assay in recombinant cells
Format: cell-based
Settings: FRT cells stably expressing human TMEM16A, intracellular calcium at EC20; for % Potentiation @ 3.33 μM Avg: 3.33 μM solution of test compound, percentage increase of baseline TMEM16A current, peak current at +70 mV; for pEC50: calculated from cumulative concentration response curve, whole-cell patch clamp
Procedure: Automated Whole-Cell Patch Clamp Assay to Detect TMEM16A Activity in Recombinant Cells
Cell Culture and Preparation
Fisher rat thyroid (FRT) cells stably expressing human TMEM16A (TMEM16Aabc variant; Dr Luis Galietta, Insituto Giannina, Italy) were cultured in T-75 flasks in Hams F-12 media with Coon's modification (Sigma) supplemented with 10% (v/v) foetal bovine serum, penicillin-streptomycin (10,000 U/mL/10000 μg/mL), G-418 (750 μg/mL), L-glutamine (2 mM) and sodium bicarbonate solution (7.5% v/v). At ˜90% confluence cells were harvested for experiments by detachment with a 2:1 (v/v) mixture of Detachin (BMS Biotechnology) and 0.25% (w/v) trypsin-EDTA. Cells were diluted to a density of 3.5-4.5×10^6 cells/mL with media consisting of CHO-S-SFM II (Sigma), 25 mM HEPES (Sigma) and Soy bean trypsin inhibitor (Sigma).
Whole-Cell Patch Clamp Recording
FRT-TMEM16A cells were whole-cell patch clamped using an automated planar patch clamp system (Qpatch, Sophion). Briefly, once high resistance (GOhm) seals were established between the cells and the planar recording array the patch was ruptured using suction pulses to establish the whole-cell recording configuration of the patch clamp technique. The assay employed the following solutions (all reagents Sigma):
Intracellular solution (mM): N-methyl-D-glucamine 130, CaCl2 18.2, MgCl2 1, HEPES 10, EGTA 10, BAPTA 20, Mg-ATP 2, pH 7.25, 325 mOsm with sucrose.
Extracellular solution (mM): N-methyl-D-glucamine 130, CaCl2 2, MgCl2 1, HEPES 10, pH 7.3, 320 mOsm with sucrose.
The intracellular solution buffers intracellular calcium at levels required to give ˜20% activation of the maximal TMEM16A mediated current (EC20 for calcium ions). Cells were voltage clamped at a holding potential of −70 mV and a combined voltage step (to +70 mV)/ramp (−90 my to +90 mV) was applied at 0.05 Hz. After a period of current stabilisation test compounds, solubilised in 100% (v/v) DMSO and subsequently diluted into extracellular solution, were applied to generate a cumulative concentration response curve. Each concentration of test compound was incubated for 5 minutes before addition of the next concentration. After the final concentration was tested a supramaximal concentration of either a known active positive modulator or the TMEM16A inhibitor, CaCCinhA01 (Del La Fuente et al, 2008) was added to define the upper and lower limits of the assay.
Compound activity was quantified by measuring the increase in current upon compound addition and expressing this as a percentage increase of baseline TMEM16A current level. Percentage increases in current were determined for each concentration and the data plotted as a function of concentration using either the Qpatch software or Graphpad Prism v6.05 providing the concentration which gave 50% of its maximal effect (EC50) and maximum efficacy (percentage of baseline increase).
In FIG. 1, IBL equals baseline current, I[#1] equals the peak current during test compound concentration 1 incubation period and so on.
Peak TMEM16A current at +70 mV was plotted as a function of time over the assay period. Baseline current (IBL) was measured after a period of stabilisation. The increase in current for each compound addition was determined by taking the peak current during the incubation period and subtracting the current from the previous recording period and then expressing this as a percentage of the baseline current. For test compound concentration 1 in FIG. 1 this is:
For each additional concentration tested the increase in current was determined by subtracting the current from the previous incubation period and normalising the baseline value—for test concentration 2 in FIG. 1 this is:
The values for each test concentration were plotted as a cumulative function of concentration e.g. for test concentration two this would be the sum of the peak changes measured during concentration one plus concentration two.

In the case of `CC(C)(O)c1cc(F)c(CC(=O)Nc2ccc3[nH]c(C4(C(F)(F)F)CC4)nc3c2)cc1O` [Example 22, 2-[2-Fluoro-5-hydroxy-4-(1-hydroxy-1-methyl-ethyl)phenyl]-N-[2-[1-(trifluoromethyl)cyclopropyl]-1H-benzimidazol-5-yl]acetamide], the “% Potentiation @ 3.33 μM Avg” value was 149% and the pEC50 was 6.77.

With `CC(C)(C)c1cc(F)c(Cc2nc3cc(C(=O)NC4(C(F)(F)F)CC4)ccc3[nH]2)cc1O` [Example 21, 2-[(4-tert-Butyl-2-fluoro-5-hydroxy-phenyl)methyl]-N-[1-(trifluoromethyl)cyclopropyl]-1H-benzimidazole-5-carboxamide] the “% Potentiation @ 3.33 μM Avg” value was 262% and the pEC50 was 7.00.

In the case of `O=C(NCC1CCCCCC1)c1ccc2[nH]c(Cc3ccc(F)cc3O)nc2c1` [Example 25.4, N-(Cycloheptylmethyl)-2-[(4-fluoro-2-hydroxy-phenyl)methyl]-1H-benzimidazole-5-carboxamide], the “% Potentiation @ 3.33 μM Avg” value was 120% and the pEC50 was 6.89.

With `COC(c1ccccc1)c1nc2cc(NC(=O)CC3C4CC5CC(C4)CC3C5)ccc2[nH]1` (stereo not drawn) [Example 2.2, 2-(2-Adamantyl)-N-[2-[methoxy(phenyl)methyl]-1H-benzimidazol-5-yl]acetamide] the “% Potentiation @ 3.33 μM Avg” value was 194.2% and the pEC50 was 6.19.

With `Cc1noc(C)c1-c1cccc(Cc2nc3ccc(NC(=O)CC45CC6CC(CC(C6)C4)C5)cc3[nH]2)c1` [Example 7, 2-(1-Adamantyl)-N-[2-[[3-(3,5-dimethylisoxazol-4-yl)phenyl]methyl]-3H-benzimidazol-5-yl]acetamide] the “% Potentiation @ 3.33 μM Avg” value was 136.5% and the pEC50 was 5.80.

In the case of `Nc1c2ccc(NC(=O)CC34CC5CC(CC(C5)C3)C4)cc2nn1Cc1ccccc1O` [Example 11, 2-(1-Adamantyl)-N-[3-amino-2-[(2-hydroxyphenyl)methyl]indazol-6-yl]acetamide], the “% Potentiation @ 3.33 μM Avg” value was 122.7% and the pEC50 was 7.01.

`CC(C)c1nc2cc(NC(=O)CC3CCCCC3)ccc2o1` [Example 12, 2-Cyclohexyl-N-(2-isopropyl-1,3-benzoxazol-5-yl)acetamide] was tested, and the “% Potentiation @ 3.33 μM Avg” value was 44.6% and the pEC50 was 5.48.

For `O=C(NCC1CCCCCC1)c1ccc2[nH]c(Cc3cccc(F)c3O)nc2c1` [Example 25.2, N-(Cycloheptylmethyl)-2-[(3-fluoro-2-hydroxy-phenyl)methyl]-1H-benzimidazole-5-carboxamide], the “% Potentiation @ 3.33 μM Avg” value was 83% and the pEC50 was 6.70.

For `CC1(c2nc3ccc(C(=O)NCC4CCCCCC4)cc3[nH]2)CCC1` [Example 28, N-(Cycloheptylmethyl)-2-(1-methylcyclobutyl)-3H-benzimidazole-5-carboxamide], the “% Potentiation @ 3.33 μM Avg” value was 82% and the pEC50 was 6.21.

`O=C(NCCC(F)(F)F)c1ccc2[nH]c(Cc3ccccc3)nc2c1` [Example 24, 2-Benzyl-N-(3,3,3-trifluoropropyl)-1H-benzimidazole-5-carboxamide] was tested, and the “% Potentiation @ 3.33 μM Avg” value was 69% and the pEC50 was 5.96.

For `CC(C)(C)c1nc2cc(NC(=O)Cc3cc(Cl)ccc3O)ccc2[nH]1` [Example 27, N-(2-tert-Butyl-1H-benzimidazol-5-yl)-2-(5-chloro-2-hydroxy-phenyl)acetamide], the “% Potentiation @ 3.33 μM Avg” value was 96% and the pEC50 was 6.81.

With `O=C(NCC1CCCCCC1)c1ccc2cn(Cc3ccccc3O)nc2c1` [Example 13, N-(Cycloheptylmethyl)-2-[(2-hydroxyphenyl)methyl]indazole-6-carboxamide] the “% Potentiation @ 3.33 μM Avg” value was 96.6% and the pEC50 was 6.70.

In the case of `O=C(CC1C2CC3CC(C2)CC1C3)Nc1ccc2[nH]c(Cc3ccc(O)cc3)nc2c1` (stereo not drawn) [Example 5.1, 2-(2-Adamantyl)-N-[2-[(4-hydroxyphenyl)methyl]-1H-benzimidazol-5-yl]acetamide], the “% Potentiation @ 3.33 μM Avg” value was 165.9% and the pEC50 was 6.22.

`O=C(NCC1CCCCCC1)c1ccc2[nH]c(Cc3c(O)cccc3F)nc2c1` [Example 25, N-(Cycloheptylmethyl)-2-[(2-fluoro-6-hydroxy-phenyl)methyl]-1H-benzimidazole-5-carboxamide] was tested, and the “% Potentiation @ 3.33 μM Avg” value was 57% and the pEC50 was 7.44.

For `O=C(CC12CC3CC(CC(C3)C1)C2)Nc1ccc2[nH]c(CC3CCCCC3)nc2c1` [Example 1, 2-(1-Adamantyl)-N-[2-(cyclohexylmethyl)-1H-benzimidazol-5-yl]acetamide], the “% Potentiation @ 3.33 μM Avg” value was 157.3% and the pEC50 was 6.47.

With `O=C(CC12CC3CC(CC(C3)C1)C2)Nc1cc2nc(Cc3ccccc3)[nH]c2cn1` [Example 14, 2-(1-Adamantyl)-N-(2-benzyl-3H-imidazo[4,5-c]pyridin-6-yl)acetamide] the “% Potentiation @ 3.33 μM Avg” value was 59.4%.

In the case of `CC(C)(O)c1cc(F)c(Cc2nc3cc(C(=O)NC4(C(F)(F)F)CC4)ccc3[nH]2)cc1O` [Example 31.1, 2-[[2-Fluoro-5-hydroxy-4-(1-hydroxy-1-methyl-ethyl)phenyl]methyl]-N-[1-(trifluoromethyl)cyclopropyl]-1H-benzimidazole-5-carboxamide], the “% Potentiation @ 3.33 μM Avg” value was 108%.

In the case of `O=C(NCC1CCCCCC1)c1ccc2[nH]c(Cc3cccc(O)c3)nc2c1` [Example 25.5, N-(Cycloheptylmethyl)-2-[(3-hydroxyphenyl)methyl]-1H-benzimidazole-5-carboxamide], the “% Potentiation @ 3.33 μM Avg” value was 66% and the pEC50 was 6.65.

With `CC(C)(C)c1cc(F)c(Cc2nc3cc(C(=O)NCCC(F)(F)F)ccc3[nH]2)cc1O` [Example 21.2, 2-[(4-tert-Butyl-2-fluoro-5-hydroxy-phenyl)methyl]-N-(3,3,3-trifluoropropyl)-1H-benzimidazole-5-carboxamide] the “% Potentiation @ 3.33 μM Avg” value was 272% and the pEC50 was 6.82.
